# Values quoted from earlier work as cited in EP1693447A1, “Procedure for the preparation of superoxide dismutase” (Gnosis S.p.A., priority 2005, dated 2006).
# Test system: superoxide dismutase
# Details: SOD currently on the market
substance,measurement,value
"Bovine liver - PEG superoxide dismutase - freeze-dried powder: type of SOD currently on the market, PEG superoxide dismutase",superoxide dismutase units/mg of protein,"Bovine liver - PEG superoxide dismutase - freeze-dried powder ≥ 1,350 units/mg of protein"
